Test results published in patent US12686664B2, “SOCE inhibitors and therapeutic uses thereof” (Institut National de la Santé et de la Recherche Médicale …, priority 2020, dated 2026).
“And” between values parts separate entries of the source, which are not always exact repeats. Equal values may be shown once. Read-outs that look alike come from different tables or passages of the source.

Columns and labels:
Type in all cases: cell-based
SOCE in JOK B cells = assay: Intracellular calcium levels / SOCE in JOK B cells (Fura-2AM, FlexStation 3); details: for amplitude of SOCE: 5 and 20 μM, compared to control, irrespective of incubation time (5, 15, 30 minutes, 1 hour)
Method: Intracellular calcium levels were monitored at 37° C. using the FlexStation 3™ (Molecular Devices, Berkshire, UK), a fluorescence plate reader measuring time-resolved intracellular Ca^2+ concentration in a 96-well format with cells loaded with the dual-wavelength fluorescent calcium-sensitive dye Fura-2AM.
Intracellular Ca^2+ stores were depleted with 2 μM Thapsigargin (an inhibitor of ER SERCA pumps) under Ca^2+-free conditions to determine the magnitude of intracellular Ca^2+ release. Next, the cells were returned to Ca^2+-containing Hepes-buffered solution to measure SOCE. The magnitude of SOCE was estimated as the maximal values of normalized fluorescence ratio following Ca^2+ re-addition.

PANC-1 cells = assay: PANC-1 cytotoxicity (Cell Tox green assay); details: 5 and 20 μM, 24 hours
Method: Analysis of Cell Proliferation. For PANC-1 cell proliferation and cell cytotoxicity measurements, […] were seeded in 96 well-plates in 100 μL of DMEM medium. Cells were incubated for 24 hours at 37° C. with 3 different SOCE inhibitors (GSK-7975-A, SKF-93365 and 6αa) at 2 different concentrations (5 and 20 μM) compared to DMSO and untreated cells. Cell proliferation was evaluated using the Cell Titer kit proliferation assay (Promega). Cytotoxicity was evaluated using the Cell Tox green cytotoxicity assay (Promega). All the kits were used following manufacturer recommendations and using a plate reader.

[1] = test system: store-operated Ca^2+ entry in HEK 293; assay: Store-operated Ca2+ entry in HEK 293 cell line; details: for Effect on amplitude of SOCE peak: % of inhibition (−) or activation
Method: (§1) The effects of the molecules developed were tested on PLP-B lymphocytes. Store-operated Ca^2+ entry was induced by depletion of Endoplasmic Reticulum Ca^2+ stores (ER Ca^2+ stores) with thapsigargin (Tg) in a Ca^2+-free medium and measured following the addition of 1.8 mM of CaCl2) in the extracellular medium. The results are compared to the results obtained for known SOCE inhibitors SKF-96365, GSK-7975A, Synta 66.
(§2) Then, effects of the molecule that gave the best results in this test (i.e., molecule 6αa) were assessed in two cancer cell lines, namely: HEK 293 and HEK 651 HS1 tumor cell lines.

JOK cells [2] = assay: JOK cell viability and apoptosis assays (LIVE/DEAD, Annexin V-FITC/PI); details: JOK B cells (FIG. 7); 5 or 20 μM; treated for 48 hours
Method: Cell Viability Assays. JOK cells were treated with test compounds (GSK-7975-A, SKF-93365 and 6αa) or solvent for 48 hours. JOK cells viability was then assessed using LIVE/DEAD cell viability assays kit (Abcam). Differentially labeled live and dead cells with fluorescent dyes are analyzed by flow cytometry.
Apoptosis Assay. Apoptosis of JOK cells were determined by Annexin V-FITC/PI staining (Biolegend) using flow cytometry. The percentage of annexin V-FITC and propidium iodide-[…] cells were assessed using Kaluza 1.3.

[3] = test system: store-operated Ca^2+ entry in HEK 651 HS1; assay: Store-operated Ca2+ entry in HEK 651 HS1 cell line; details: for Effect on amplitude of SOCE peak: % of inhibition (−) or activation; for IC50: average of three assays, ±0.5 μM
Method: as §1, §2

JOK cells [4] = assay: Migration of JOK cells through HUVEC in transwells; details: 5 or 20 μM
Method: Migration Protocol. Migration chambers (transwells) (Transwell 5.0 m polycarbonate membrane Costar) were coated overnight (37° C., 5% CO2) with 100 μL of fibronectine solution containing BSA (1 mg/ml) and LHC Basal Medium. Primary HUmbilical Vein Endothelial Cells (HUVEC) were seeded in each transwell (100 000/well) and cultured for 24 hours (37° C., 5% CO2). To evaluate B cell migration, JOK cells were added (300 000/well) to each transwell upper chamber containing RPMI 1640 medium (BioWest) containing 0.5% BSA and SDF1 (200 ng/ml) was added in the bottom chamber. Cells were cultures in the presence or absence of a test compound (GSK-7975-A, SKF-93365 and 6αa) or solvent. After 24 hours (37° C., 5% CO2), migrated cells were collected in the bottom chambers and counted by flow cytometry. The percentages of migration were calculated for each experimental collection.

[5] = test system: store-operated Ca^2+ entry in PLP-B lymphocytes; assay: Store-operated Ca2+ entry after thapsigargin depletion of ER Ca2+ stores in PLP-B lymphocytes; details: for Effect on amplitude of SOCE peak / inhibition at 0.1 µM / inhibition at 1 µM / inhibition at 10 µM / inhibition at 50 µM / inhibition at 100 µM: PLP-B lymphocytes, % of inhibition (−) or activation; for IC50: SOCE in PLP-B lymphocytes, average of three assays, ±0.5 μM
Method: as §1

HUVEC cells = assay: HUVEC cell death (Annexin/Propidium Iodide, flow cytometry); details: HUVEC (FIG. 8); 5 or 20 μM; treated for 48 hours
Method: FIG. 8. In vitro Effects of 6αa, GSK-7975-A and SKF-93365 on HUVEC Cell Death. […] Cell death was analyzed by flow cytometry following Annexin/Propidium Iodide labeling. Percentages of living cells, necrotic cells and apoptotic cells submitted to GSK-7975A (A), SKF-93365 (B), and 6αa (DAD 3-473) (C) treatment were normalized to the DMSO treatment conditions. Histograms present the amounts of apoptotic cells (annexin/PI positive cells) detected in each experimental condition after treatment with GSK-7975A (D), SKF-93365 (E), and 6αa (DAD 3-473) (F). Data are expressed as mean±SEM of n observations (n=2). Data are analyzed with non parametric Mann Withney analysis, *P<0.05, **P<0.01 and ***P<0.001.

Row | SMILES | amplitude of Ca2+ release from the endoplasmic stores (SOCE in JOK B cells) | amplitude of SOCE (SOCE in JOK B cells) | cytotoxicity in cancer PANC-1 cells (PANC-1 cells) | Effect on amplitude of SOCE peak ([1]; 0.1 μM) [%] | Effect on amplitude of SOCE peak ([1]; 1 μM) [%] | Effect on amplitude of SOCE peak ([1]; 5 μM) [%] | Effect on amplitude of SOCE peak ([1]; 10 μM) [%] | Effect on amplitude of SOCE peak ([1]; 50 μM) [%] | apoptosis or necrosis of cells (JOK cells [2]) | Effect on amplitude of SOCE peak ([3]; 0.1 μM) [%] | Effect on amplitude of SOCE peak ([3]; 1 μM) [%] | Effect on amplitude of SOCE peak ([3]; 5 μM) [%] | Effect on amplitude of SOCE peak ([3]; 10 μM) [%] | Effect on amplitude of SOCE peak ([3]; 50 μM) [%] | IC50 [3] [µM] | apoptosis or necrosis of cells (HUVEC cells) | further results
1 | O=C(Nc1ccn(Cc2ccc(O)cc2C(F)(F)F)n1)c1c(F)cccc1F [GSK-7975A] | not found to be significantly affected | significantly reduces | no cytotoxic effects | −7 | −31 | −66 | −75 | −87 | do not induce apoptosis or necrosis | 0 | −2 | −19 | −22 | −72 | 44 | do not induce apoptosis or necrosis | IC50 ([1]; average of three assays, ±0.5 μM): 2000 nM; transendothelial migration through HUVEC of JOK cells (JOK cells [4]): does not; Effect on amplitude of SOCE peak ([5]; 1 μM, DMSO control 100%): 19.0% and 9.0%; Effect on amplitude of SOCE peak ([5]; 10 μM, DMSO control 100%): −9.0%; Effect on amplitude of SOCE peak ([5]; 50 μM, DMSO control 100%): −88.0%; Effect on amplitude of SOCE peak ([5]; 100 μM, DMSO control 100%): −94.0%; IC50 [5]: 2.3 µM
2 | COc1ccc(CCCOC(Cn2ccnc2)c2ccc(OC)cc2)cc1 (centres unmarked) [SKF-96365] | not found to be significantly affected | significantly reduces | no cytotoxic effects | −25 | −21 | −23 | −4 | −33 | do not induce apoptosis or necrosis | −8 | −6 | −9 | −17 | −63 | 40 | do not induce apoptosis or necrosis | inhibition at 0.1 µM ([5]; Lymphocyte, DMSO control 100%, read-out: Effect on amplitude of SOCE Peak): 3.4%; inhibition at 0.1 µM ([5]; Lymphocyte, thapsigargin (Tg) peak, read-out: Effect on amplitude of Tg Peak): -2.4%; inhibition at 1 µM ([5]; Lymphocyte, 1 μM, DMSO control 100%, read-out: Effect on amplitude of SOCE Peak): 26.4%; inhibition at 1 µM ([5]; Lymphocyte, 1 μM, thapsigargin (Tg) peak, read-out: Effect on amplitude of Tg Peak): -6.5%; inhibition at 10 µM ([5]; Lymphocyte, 10 μM, DMSO control 100%, read-out: Effect on amplitude of SOCE Peak): 15.4%; inhibition at 10 µM ([5]; Lymphocyte, 10 μM, thapsigargin (Tg) peak, read-out: Effect on amplitude of Tg Peak): 6.6%; inhibition at 50 µM ([5]; Lymphocyte, 50 μM, DMSO control 100%, read-out: Effect on amplitude of SOCE Peak): 44.3%; inhibition at 50 µM ([5]; Lymphocyte, 50 μM, thapsigargin (Tg) peak, read-out: Effect on amplitude of Tg Peak): 11.1%; inhibition at 100 µM ([5]; Lymphocyte, 100 μM, DMSO control 100%, read-out: Effect on amplitude of SOCE Peak): 58.7%; inhibition at 100 µM ([5]; Lymphocyte, 100 μM, thapsigargin (Tg) peak, read-out: Effect on amplitude of Tg Peak): 8%; IC50 ([5]; Lymphocyte): 60 µM
